In patent publication US10294248B2, “Beta-lactamase inhibitors” (VenatoRx Pharmaceuticals, Inc., priority 2013, dated 2019):

Legend:
[1] = system: E. cloacae 144200 expressing Class C P99 AmpC; assay: Broth microdilution MIC, E. cloacae 144200 p99 AmpC; type: cell-based; conditions: fixed 4 μg/mL ceftazidime; CAMHB, 16-20 hours at 37° C.
Source text: (§1) To determine the ability of test compounds to potentiate the inhibition of the growth of bacterial strains that produce beta-lactamase enzymes, classic cell based broth microdilution MIC assays were employed. Six bacteria strains producing beta-lactamase enzymes were used: E. coli expressing the Class A Extended Spectrum Beta-Lactamase (ESBL) CTX-M-15, E. cloacae expressing the Class C P99, K. pneumoniae expressing the Class A carbapenemase KPC-3, P. aeruginosa expressing the Class B carbapenemase VIM-2, K. pneumoniae expressing the class A carbapenemase KPC-2 and the class B carbapenemase VIM-4, and S. aureus producing the Class A penicillinase PC-1. The assay was conducted in Cation Adjusted Mueller Hinton Broth (CAMHB, BD #212322, BD Diagnostic Systems, Sparks, Md.). Bacteria strains were grown for 3-5 hours in CAMBH broth. Test compounds (Examples 1-30) were added to a microtiter plate in 2-fold serial dilutions in CAMHB in a final concentration range of 32 μg/mL to 0.25 μg/ml. An overlay of CAMHB containing a Beta-lactam was added to the compounds at a final static concentration of 4 μg/ml. […] In addition to the titration of test compounds the MICs of a panel of control beta-lactams is also tested to ensure the strains are behaving consistently from test to test. Once the test compound and antibiotics are added the plates can be inoculated according to CLSI broth microdilution method. After inoculation the plates are incubated for 16-20 hours at 37° C. then the Minimal Inhibitory Concentration (MIC) of the test compound is determined visually.
(§2) Using the methodology described above, examples of the current invention were evaluated for their ability to inhibit the growth of β-lactamase-producing bacteria in the presence of a β-lactam antibiotic.
(§3) Using the methodology described above in EXAMPLE III, exemplary compounds for Formula I or Formula Ia were evaluated for their ability to inhibit the growth of β-lactamase producing bacteria in the presence of a β-lactam antibiotic.

[2] = target: T1, KPC-2 β-lactamase (Class A carbapenemase) (Klebsiella pneumoniae, UniProt Q9F663); assay: β-Lactamase inhibition, KPC-2; type: biochemical; conditions: imipenem substrate, 300 nm; 15 min preincubation at 37° C., PBS pH 7.4
T1 construct: made in house; host or cells: E. coli BL21(DE3)
T1 sequence (Q9F663 25-293, looked up): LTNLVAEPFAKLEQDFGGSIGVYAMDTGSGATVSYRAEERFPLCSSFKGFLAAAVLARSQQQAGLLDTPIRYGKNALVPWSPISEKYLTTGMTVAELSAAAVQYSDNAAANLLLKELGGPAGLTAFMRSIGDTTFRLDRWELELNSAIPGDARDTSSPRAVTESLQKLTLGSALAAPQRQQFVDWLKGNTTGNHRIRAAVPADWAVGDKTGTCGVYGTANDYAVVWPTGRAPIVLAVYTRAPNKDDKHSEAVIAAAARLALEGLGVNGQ
Protocol: (§4) For SHV-5, Kpc-2, p99AmpC and OXA-1 β-lactamases, E. coli BL21(DE3) bacterial cells carrying expression plasmids (expressed as native untagged proteins) for the individual β-lactamases were grown in 1 L of Superbroth (Teknova Inc. Hollister, Calif.) supplemented with 100 μg/ml kanamycin selection and 1×5052 (0.5% glycerol, 0.05% glucose and 0.2% α-lactose) at 35° C. for 18-20 hours. Cells were harvested by centrifugation (4,000×g, 4° C., 20 min), resuspended in 50 ml of 10 mM HEPES pH 7.5 ( 1/20 of the initial volume). The cells were lysed by sonication (5 pulses of 45 seconds) at 45 W on ice. The lysates were clarified by centrifugation at 10,000×g for 40 minutes at 4° C. Samples were diluted 5-fold in 50 mM sodium acetate pH 5.0, stored overnight at 4° C., after which they were centrifuged at 10,000×g for 30 minutes to clarify, and filtered through 0.45 μm filters. The samples were loaded onto a 5 ml Capto S sepharose cation exchange column (GE Healthcare) pre-equilibrated with 50 mM sodium acetate pH 5.0. The column was washed with 5 column volumes of 50 mM sodium acetate pH 5.0 to wash out unbound protein and a linear gradient of NaCl (0 to 500 mM) was used to elute the protein (over 16 CV) from the column. Fractions were assayed for β-lactamase activity using Centa (Calbiochem, Gibbstown, N.J.) or Nitrocefin (EMD Millipore chemicals, Darmstadt, Germany) as a reporter β-lactamase substrate for activity in the isolated fractions. Active fractions were pooled, concentrated and further purified by gel filtration chromatography on a Superdex 75 prep grade gel filtration column (GE Healthcare, Piscataway, N.J.) pre-equilibrated in 50 mM Hepes pH 7.5, 150 mM NaCl. Active fractions were pooled concentrated, quantitated by BCA protein determination (Thermo Scientific, Rockford, Ill.), dialyzed into PBS and frozen at −80° C. in 20% glycerol until use.
(§5) An equal volume of diluted enzyme stock was added, and the plates were incubated at 37° C. for 15 min. Nitrocefin was used as substrate for p99 AmpC, VIM-2 and OXA-1 and dispensed into each well at a final concentration of 100 μM. Absorbance at 486 nm was immediately monitored for 10 min using a Biotek Powerwave XS2 microplate spectrophotometer using the GEN5 software package (Biotek Instruments, Winooski Vt.). In an analogous fashion, imipenem was used as substrate for Kpc-2 and Cefotaxime was used for SHV-5, while changes in absorbance upon hydrolysis of the β-lactam ring were monitored at 300 nm and 260 nm respectively in UV-transparent 96-well microtiter assay plates. Maximum rates of hydrolysis were compared to those in control wells (without inhibitors), and percentages of enzyme inhibition were calculated for each concentration of inhibitor. The concentration of inhibitor needed to reduce the initial rate of hydrolysis of substrate by 50% (IC50) was calculated as the residual activity of β-lactamase at 486 nm using GraFit version 7 kinetics software package (Erithacus Software, Surrey, UK).
(§6) Using the methodology described above, examples of the current invention were evaluated for their ability to inhibit β-lactamase enzymes from all four Ambler classifications (A through D). […] NT=Not tested.

[3] = target: T2, p99 AmpC β-lactamase (Class C) (Enterobacter cloacae, UniProt P05364); assay: β-Lactamase inhibition, p99 AmpC; type: biochemical
T2 construct: made in house; host or cells: E. coli BL21(DE3)
T2 sequence (P05364 21-381): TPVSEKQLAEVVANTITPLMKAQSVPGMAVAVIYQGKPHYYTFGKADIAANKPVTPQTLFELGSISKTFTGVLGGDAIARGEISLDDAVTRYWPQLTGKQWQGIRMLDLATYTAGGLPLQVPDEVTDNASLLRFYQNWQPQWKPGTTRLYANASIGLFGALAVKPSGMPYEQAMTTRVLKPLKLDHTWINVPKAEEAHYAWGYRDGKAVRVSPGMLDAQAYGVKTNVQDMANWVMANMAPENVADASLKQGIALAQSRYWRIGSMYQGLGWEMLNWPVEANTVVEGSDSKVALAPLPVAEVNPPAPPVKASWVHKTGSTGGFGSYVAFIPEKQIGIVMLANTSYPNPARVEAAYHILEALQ
Protocol: as §4, §5, §6

[4] = system: E. coli ESBL4 expressing CTX-M-15; assay: Broth microdilution MIC, E. coli ESBL4 CTX-M-15; type: cell-based; conditions: fixed 4 μg/mL ceftazidime; CAMHB, 16-20 hours at 37° C.
Source text: as §1, §2, §3

[5] = target: T3, SHV-5 β-lactamase (Class A ESBL) (Klebsiella pneumoniae, UniProt P0A3M1); assay: β-Lactamase inhibition, SHV-5; type: biochemical
T3 construct: made in house; host or cells: E. coli BL21(DE3)
T3 sequence (P0A3M1 22-286): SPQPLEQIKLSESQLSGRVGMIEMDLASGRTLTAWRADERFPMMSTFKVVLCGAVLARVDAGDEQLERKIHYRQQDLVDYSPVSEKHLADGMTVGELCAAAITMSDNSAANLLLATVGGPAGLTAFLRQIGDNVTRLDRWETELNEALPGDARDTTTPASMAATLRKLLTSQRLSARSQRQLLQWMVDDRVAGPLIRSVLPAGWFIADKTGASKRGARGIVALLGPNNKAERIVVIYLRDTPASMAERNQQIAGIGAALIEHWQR
Protocol: as §4, §5, §6

[6] = target: T4, VIM-2 metallo-β-lactamase (Class B) (Pseudomonas aeruginosa, UniProt Q9K2N0); assay: β-Lactamase inhibition, VIM-2; type: biochemical; conditions: nitrocefin 100 μM, 486 nm; 15 min preincubation at 37° C., PBS pH 7.4
T4 construct: made in house; host or cells: E. coli BL21(DE3)
Protocol: For Vim-2 metallo β-lactamase, the procedure was identical with the following exceptions, first the protein was not pH adjusted to pH 5 with 50 mM sodium acetate, second, the chromatography step was changed to a 5 ml Q sepharose anion exchange column pre-equilibrated with 50 mM Hepes pH 7.5, and elution of the protein was achieved by a linear gradient of NaCl (0-600 mM). Finally, the VIM-2 purification required a second run (3rd step) on the Q sepharose anion exchange column to achieve acceptable purity (>90%).
as §5, §6

[7] = system: P. aeruginosa Ps296 expressing VIM-2; assay: Broth microdilution MIC, P. aeruginosa Ps296 VIM-2; type: cell-based; conditions: fixed 4 μg/mL meropenem; CAMHB, 16-20 hours at 37° C.
Source text: as §1, §2, §3

[8] = target: T5, OXA-1 β-lactamase (Class D oxacillinase) (Escherichia coli, UniProt P13661); assay: β-Lactamase inhibition, OXA-1; type: biochemical; conditions: nitrocefin 100 μM, 486 nm; 15 min preincubation at 37° C., PBS pH 7.4
T5 construct: made in house; host or cells: E. coli BL21(DE3)
T5 sequence (P13661 26-276): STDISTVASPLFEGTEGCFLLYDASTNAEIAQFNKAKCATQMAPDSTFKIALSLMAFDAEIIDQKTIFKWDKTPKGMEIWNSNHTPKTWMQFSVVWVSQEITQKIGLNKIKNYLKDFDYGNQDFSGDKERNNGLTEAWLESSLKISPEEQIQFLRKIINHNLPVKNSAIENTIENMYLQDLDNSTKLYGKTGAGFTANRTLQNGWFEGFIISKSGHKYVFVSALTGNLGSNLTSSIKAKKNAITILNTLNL
Protocol: as §4, §5, §6

[9] = system: S. aureus MSSA-7 producing penicillinase PC-1; assay: Broth microdilution MIC, S. aureus MSSA-7 PC-1; type: cell-based; conditions: fixed 4 μg/mL piperacillin; CAMHB, 16-20 hours at 37° C.
Source text: as §1, §2, §3

[10] = system: K. pneumoniae 156319 expressing KPC-3; assay: Broth microdilution MIC, K. pneumoniae 156319 KPC-3; type: cell-based; conditions: fixed 4 μg/mL meropenem; CAMHB, 16-20 hours at 37° C.
Source text: as §1, §2, §3

[11] = system: K. pneumoniae A-1797 expressing KPC-2 and VIM-4; assay: Broth microdilution MIC, K. pneumoniae A-1797 KPC-2/VIM-4; type: cell-based; conditions: fixed 4 μg/mL meropenem; CAMHB, 16-20 hours at 37° C.
Source text: as §1, §2, §3

Row | Structure (SMILES) | MIC of example compound in presence of fixed β-lactam: Fixed CAZ, E. cl. 144200 p99 AmpC [1] | IC50 [2] | IC50 [3] | MIC of example compound in presence of fixed β-lactam: Fixed CAZ, E. coli ESBL4 CTX-M-15 [4] | IC50 [5] | IC50 [6] | MIC of example compound in presence of fixed β-lactam: Fixed Mero, P. aerug. Ps296 VIM-2 [7] | IC50 [8] | MIC of example compound in presence of fixed β-lactam: Fixed Pip, S. aureus MSSA-7 PC-1 [9] | MIC of example compound in presence of fixed β-lactam: Fixed Mero, K. P. 156319 KPC-3 [10] | MIC of example compound in presence of fixed β-lactam: Fixed Mero, K. P. A-1797 KPC-2 VIM-4 [11]
1 | NCCN1CCC(CCC(=O)N[C@H]2Cc3cccc(C(=O)O)c3OB2O)CC1 [Example 31, 3-{3-[1-(2-Amino-ethyl)-piperidin-4-yl]-propionylamino}-2-hydroxy-3,4-dihydro-2H-benzo[e][1,2]oxaborinine-8-carboxylic acid] | C (the MIC in the presence of <4 μg/mL of a β-lactamase inhibitor) | < 100 nM | < 100 nM | C (the MIC in the presence of <4 μg/mL of a β-lactamase inhibitor) | 100 to 1000 nM | 1000 to 10000 nM | C (the MIC in the presence of <4 μg/mL of a β-lactamase inhibitor) | < 100 nM | C (the MIC in the presence of <4 μg/mL of a β-lactamase inhibitor) | C (the MIC in the presence of <4 μg/mL of a β-lactamase inhibitor) | B (the MIC in the presence of between 8 and 32 μg/mL of a β-lactamase inhibitor)
2 | N[C@H]1CCCN(CC(=O)N[C@H]2Cc3cccc(C(=O)O)c3OB2O)C1 [Example 11, 3-[2-(S-3-Amino-piperidin-1-yl)-acetylamino]-2-hydroxy-3,4-dihydro-2H-benzo[e][1,2]oxaborinine-8-carboxylic acid] | C (the MIC in the presence of <4 μg/mL of a β-lactamase inhibitor) | 100 to 1000 nM | < 100 nM | C (the MIC in the presence of <4 μg/mL of a β-lactamase inhibitor) | < 100 nM | 1000 to 10000 nM | A (an MIC of the fixed β-lactam antibiotic in the presence of >32 μg/mL of a β-lactamase inhibitor) | 100 to 1000 nM | A (an MIC of the fixed β-lactam antibiotic in the presence of >32 μg/mL of a β-lactamase inhibitor) | C (the MIC in the presence of <4 μg/mL of a β-lactamase inhibitor) | A (an MIC of the fixed β-lactam antibiotic in the presence of >32 μg/mL of a β-lactamase inhibitor)
3 | NCCNC1CCN(CC(=O)N[C@H]2Cc3cccc(C(=O)O)c3OB2O)CC1 [Example 30, 3-{2-[4-(2-Amino-ethylamino)-piperidin-1-yl]-acetylamino}-2-hydroxy-3,4-dihydro-2H-benzo[e][1,2]oxaborinine-8-carboxylic acid] | C (the MIC in the presence of <4 μg/mL of a β-lactamase inhibitor) | < 100 nM | < 100 nM | C (the MIC in the presence of <4 μg/mL of a β-lactamase inhibitor) | < 100 nM | 1000 to 10000 nM | B (the MIC in the presence of between 8 and 32 μg/mL of a β-lactamase inhibitor) | < 100 nM | A (an MIC of the fixed β-lactam antibiotic in the presence of >32 μg/mL of a β-lactamase inhibitor) | C (the MIC in the presence of <4 μg/mL of a β-lactamase inhibitor) | A (an MIC of the fixed β-lactam antibiotic in the presence of >32 μg/mL of a β-lactamase inhibitor)
4 | NC1CCN(CC(=O)N[C@H]2Cc3cccc(C(=O)O)c3OB2O)CC1 [Example 1, 3-[2-(4-Amino-piperidin-1-yl)-acetylamino]-2-hydroxy-3,4-dihydro-2H-benzo[e][1,2]oxaborinine-8-carboxylic acid] | B (the MIC in the presence of between 8 and 32 μg/mL of a β-lactamase inhibitor) | < 100 nM | < 100 nM | C (the MIC in the presence of <4 μg/mL of a β-lactamase inhibitor) | < 100 nM | 10000 to 100000 nM | A (an MIC of the fixed β-lactam antibiotic in the presence of >32 μg/mL of a β-lactamase inhibitor) | 100 to 1000 nM | C (the MIC in the presence of <4 μg/mL of a β-lactamase inhibitor) |  | A (an MIC of the fixed β-lactam antibiotic in the presence of >32 μg/mL of a β-lactamase inhibitor)
